Assays:
[1] = Displacement of [3H]flunitrazepam from CBR receptor in rat brain cortex membrane incubated for 20 mins by liquid scintillation spectrometer method; format: cell membranes, Cerebral cortex
Translocator protein [2] = biological target: T1, Translocator protein (Rattus norvegicus, UniProt P16257); assay: Displacement of [3H]PK11195 from TSPO receptor in rat brain cortex membrane incubated for 120 mins by liquid scintillation spectrometer method; format: cell membranes, Cerebral cortex
Translocator protein [3] = biological target: T1, Translocator protein; assay: Displacement of [3H]PK11195 from TSPO receptor in rat brain cortex mitochondrial membrane incubated for 60 mins by liquid scintillation spectrometer method; format: cell membranes
[4] = Binding affinity to CBR (unknown origin); set-up: species or system Homo sapiens
[5] = Metabolic stability in rat brain assessed as parent compound remaining after 30 mins by radio-HPLC analysis; format: ADME, tissue-based; conditions: read-out: Stability
Translocator protein [6] = biological target: T2, Translocator protein (Homo sapiens, UniProt P30536); assay: Binding affinity to TSPO receptor (unknown origin)
[7] = Lipophilicity, log P of the compound at pH 7.4; format: physicochemical; conditions: buffer
Translocator protein [8] = biological target: T1, Translocator protein; assay: Displacement of [3H]PK11195 from TSPO receptor in rat brain cortex mitochondrial membrane by liquid scintillation spectrometer method; format: cell membranes
Translocator protein [9] = biological target: T2, Translocator protein; assay: Binding affinity to human TSPO

T1 sequence (P16257 whole entry, looked up): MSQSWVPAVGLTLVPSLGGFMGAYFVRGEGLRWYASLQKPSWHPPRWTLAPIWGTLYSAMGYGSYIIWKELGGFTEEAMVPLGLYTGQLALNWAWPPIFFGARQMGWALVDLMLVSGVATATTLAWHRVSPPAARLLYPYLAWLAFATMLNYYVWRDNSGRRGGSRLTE
T2 sequence (P30536 whole entry): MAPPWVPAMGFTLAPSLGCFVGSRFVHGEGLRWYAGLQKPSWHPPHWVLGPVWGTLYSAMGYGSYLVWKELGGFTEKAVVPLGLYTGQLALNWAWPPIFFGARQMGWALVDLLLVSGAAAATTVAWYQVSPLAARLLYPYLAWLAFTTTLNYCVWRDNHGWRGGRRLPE

## CCCN(CCC)C(=O)/C=C1\c2nc3ccccc3cc2C(=O)N1c1ccc(Cl)cc1
[1]; read-out: IC50
  IC50: > 1000 nM

## CCCCN1Cc2c(nc3ccccc3c2-c2ccccc2F)C1=O
Translocator protein [2]
  IC50: > 10000 nM

## CCCN(CCC)C(=O)CC1c2ncccc2C(=O)N1c1ccc(Cl)cc1 (stereo not given)
[1]; read-out: IC50
  IC50: 860 nM

## CCCCCCN(CCCCCC)C(=O)/C=C1\c2ncccc2C(=O)N1c1ccc(Cl)cc1
[1]; read-out: IC50
  IC50: > 1000 nM

## CCN(CC)C(=O)Cc1c(-c2ccc([123I])cc2)nc2ccc(Cl)cn12
Translocator protein [3]
  Kd: 3.84 nM

## CCCCCCN(CCCCCC)C(=O)CC1c2ncccc2C(=O)N1c1ccc(Cl)cc1 (stereo not given)
[1]; read-out: IC50
  IC50: > 1000 nM

## CN(Cc1ccccc1)C(=O)c1nc2ccccc2c2c1CCOc1ccccc1-2
Translocator protein [2]
  IC50: 10 nM

## CCCN(CCC)C(=O)CC1c2nc3ccccc3cc2C(=O)N1c1ccccc1 (stereo not given)
[1]; read-out: IC50
  IC50: > 1000 nM
Translocator protein [2]
  IC50: > 1000 nM

## CCCCCCN(CCCCCC)C(=O)/C=C1\c2nc3ccccc3cc2C(=O)N1c1ccc(Cl)cc1
[1]; read-out: IC50
  IC50: > 1000 nM

## CN1C(=O)CN=C(c2ccccc2)c2cc(Cl)ccc21 [DIAZEPAM]
[1]
  IC50: 5.6 nM

## CCCN(CCC)C(=O)Cc1c(-c2ccc(Cl)cc2)nc2ccc(Cl)cn12 [ALPIDEM]
[4]
  Ki: 1 nM
[1]; read-out: IC50
  IC50: 1 nM
Translocator protein [2]
  IC50: 0.5 nM

## O=C1c2cccnc2CN1c1ccc(Cl)cc1
[1]; read-out: IC50
  IC50: > 1000 nM

## CCCCCCN(CCCCCC)C(=O)CC1c2nc3ccccc3cc2C(=O)N1c1ccc(Cl)cc1 (stereo not given)
[1]; read-out: IC50
  IC50: > 1000 nM

## CCCN(CCC)C(=O)Cc1c(-c2ccc(Cl)cc2)[nH]c2ccc(Cl)cc12
[1]; read-out: IC50
  IC50: > 1000 nM

## CCN(CC)C(=O)Cc1c(-c2ccc(OCCF)cc2)nn2c(C)cc(C)nc12 [DPA-714]
[5]
  remaining at 0.5 h: < 3%

## CCN(CC)C(=O)[C@H]1CCCc2c1c1c(OC)cccc1n2CC[18F]
Translocator protein [6]
  Ki: 2.4 nM

## CCCCN1Cc2c(nc3ccccc3c2-c2ccccc2)C1=O
Translocator protein [2]
  IC50: > 10000 nM

## CN1C(=O)CN=C(c2ccc(Cl)cc2)c2cc(Cl)ccc21 [RO-54864]
Translocator protein [6]
  Kd: 1.1 nM

## CC(=O)N(Cc1ccccc1OCC[18F])c1cnccc1Oc1ccccc1
[7]
  logD: 2.99
Translocator protein [8]
  Ki: 0.07 nM

## CCCN(CCC)C(=O)/C=C1\c2ncccc2C(=O)N1c1ccc(Cl)cc1
[1]; read-out: IC50
  IC50: > 1000 nM

## CCC(C)N(C)C(=O)c1cc2ccccc2c(-c2ccccc2[123I])n1 (stereo not given)
Translocator protein [9]
  Kd: 10 nM
